Assay results from patent EP0256472A2, “Cosmetic agent for application to skin” (priority 1986, dated 1988).

Columns and labels:
Acute oral toxicity = format: in vivo; details: rat
collagen = test: Promotion of collagen production in skin-excised rats: weight of granulation and hydroxyproline (Test Example 2); format: in vivo, Wistar 6-week old male rats; details: for increases in the weights of regenerated granulation and the amounts of hydroxyproline (in words): summary of Table 3
Procedure: The action of promoting the production of collagen by the coenzymes and the nucleic acid related substances used in the present invention was evaluated in accordance with the following method:
Each rat was killed on the seventh day, and then the circular portion was cut out and the weight of granulation (derma) and the amount of hydroxyproline, which is a specific amino acid constituting collagen, were measured as an index of the amount of reproduced collagen.

[1] = rabbit, in vivo
[2] = guinea pig, in vivo
[3] = guinea pig, in vivo; remark: listed apart in the source
[4] = system: Fibroblasts originating in the human skin; test: Promotion of growth of dermal fibroblasts (Test Example 1); format: cell-based; details: 10⁻⁵ M, 1% serum, 14 days; words of the text only, Table 2 is an image
Procedure: The action of promoting the growth of dermal fibroblasts by the coenzymes and nucleic acid related substances used in the present invention was evaluated in accordance with the following method:
Fibroblasts originating in the human skin were cultured in media to which the above-described compounds had been added and to which no such compound was added under serum controlled conditions and the effect of the compounds on proliferation was examined. That is, the above-described fibroblasts were cultured in a Co₂-incubator at 37°C for 24 hours in Eagle's MEM medium (pH 7.6) to which were added 10% of fetal bovine serum and the like. The medium was then changed to a medium in which the serum was lowered 1% and in which the fibroblasts were then cultured for 24 hours. The medium was then changed into a medium containing 10⁻⁵ M of a substance for examination and 1% of serum in which the culture was continued.
The medium was then changed on alternate days. The results obtained are shown in Table 2 in which the number of cells for each case is shown by a relative value obtained by assuming the number of cells after 14 days to be 100 in the case of the control in which no substance for examination was added.

collagen elastin fibril = test: Tensile strength of healed linear skin cut in rats (Test Example 3); format: in vivo, Wistar 6-week old male rats; details: for increases in the tensile strength of collagen elastin fibril (in words): summary of Table 4
Procedure: The effect of the coenzymes and the nucleic acid related substances against the strength of collagen elastin fibril was conducted as follows:
After hair had been removed from the back of each rat in a group comprising eight Wistar 6-week old male rats, the back of the rat was cut along the median line of the back by a scalpel to make a linear cut portion having a length of 4 cm, and the cut portion was sewed up at 3 positions at equally spaced intervals by Michel's clips. The Michel's clips were removed 3 days after the sewing. 0.1 ml of each of physiological saline containing 50 mM of the above described compound or a physiological saline containing no compound (control) was repeatedly applied to the cut portion once a day for 7 days. Each rat was killed on the eighth day, and the skin of the cut portion was cut out to prepare three samples per rat, each sample being a strip of skin having a width of 1 cm crossing the cutting line.
The tensile strength of the sample up to breakage point was measured by a tensiometer to determine the strength of reproduced collagen elastin fibril. In the Table, values of the strength are shown as relative values obtained on the assumption that those of the control were 100.
In the above test, a relative value of the strength of more than 110 is considered to show an increase in the tensile strength.

[5] = in vivo
[6] = guinea pig, in vivo; remark: listed apart in the source
[7] = guinea pig, in vivo; remark: listed apart in the source
[8] = Colour tone of the skin of colored guinea pigs, color-difference meter (Example 10); format: in vivo, guinea pig; details: cream with 0.5% of active principle, twice a day for 14 days; larger value = whiter skin
Procedure: After hair had been removed from the back of each colored guinea pig (3 guinea pigs in a group), a cream with which 0.5% of an active principle was mixed (cGMP or its derivatives in place of FAD 2Na used in Example 2) and a cream containing no active principle were respectively applied to the back of each guinea pig twice a day (in the morning and at night) every day for 14 days. The difference in colour tone of the skin before and after the application was measured by a color-difference meter.
The numerical values shown in the table are L-values (lightness) and a larger value indicates a whiter skin.

[9] = Lightness of discolored spot or freckled portion of human skin, color-difference meter (Example 11); format: in vivo; details: Example 12: cream as in Example 11 with this compound instead of N²,O^2ʹ-DBcGMP Na and cGMP Na
Procedure: Creams having the compositions shown in Table 23 were prepared and then applied to a discolored spot or freckled portion of the skin of each of 6 men and women in the morning and at night twice a day for 3 months. The lightness of the discolored spot portions was measured by a color-difference meter before and after the application.
The numerical values obtained before and after the application shown in the table are L-values (lightness).

[10] = Half face use test of cosmetic agents on women: elasticity, complexion, roughness, wrinkling of the skin; format: in vivo, human; details: Example 9: toilet water as in Example 7 with this compound in place of N²,O^2ʹ-DBcGMP Na
Source text: Two groups each of which comprised 20 statistically-equivalent women (30 to 50 years old) were selected and the toilet water samples I and II were applied separately to the right and left face portions, respectively, of each woman in one group and the toilet water samples I and III were respectively applied to same portions of each woman in the other group by a half face method twice a day (in the morning and at night) for 3 months. The degree of improvement in terms of elasticity, complexion, roughness, and wrinkling of the skin were then examined. […]
The effectiveness of thus-prepared toilet waters was actually measured by the same method as set forth in Example 1.
The toilet water samples of the present invention and of the comparison were applied separately to the right and left face portions, respectively, of each woman in a group comprising 20 women (30 to 50 years old) by a half face method twice a day (in the morning and at night) for 3 months. The degree of improvement in terms of elasticity, complexion, roughness, and wrinkles of the skin was then examined. […]

[11] = Safety tests in the same way as in Example 1 (acute toxicity, skin irritation, skin sensitization); format: in vivo
Source text: The above-described coenzymes and nucleic acid related substances used in the present invention are widely present in organisms and are thus thought to be extremely safe.

[12] = relative value, control = 100, 0.1 ml of 50 mM in 10% ethanol twice a day for 6 days, seventh day
[13] = tested in the same way as in Example 1

5ʹ-deoxyadenosylcobalamine [CoB12]
LD50 value (Acute oral toxicity): LD50 value; 5 g/kg or more
Amount of hydroxyproline (collagen; [12]): 167
Weight of granulation (collagen; [12]): 181
increases in the weights of regenerated granulation and the amounts of hydroxyproline (in words) (collagen): particularly excellent effects
Ocular-mucous membrane irritation [1]: 5%, non-irritant
Primary skin irritation [2]: 5%; non-irritant
Skin sensitization [3]: negative
growth promotion functions for human fibroblasts [4]: particularly excellent effects
Tensile strength (collagen elastin fibril; relative value, control = 100, more than 110 is considered an increase, 0.1 ml of 50 mM in physiological saline once a day for 7 days, eighth day): 122
increases in the tensile strength of collagen elastin fibril (in words) (collagen elastin fibril): particularly excellent effect
Human patch test [5]: 5%; non-irritant
Phototoxicity [6]: negative
Photosensitization [7]: negative

Nc1nc2c(nc(Br)n2[C@@H]2O[C@@H]3COP(=O)(O)O[C@H]3[C@H]2O)c(=O)[nH]1 [8-BrcGMP Na]
L-values (lightness) After application [8]: 45.4
properties of the creams (lightness of discolored spots) [9]: results similar to those in Example 11
effect of preventing the aging of the skin [10]: excellent effects similar to those of Example 7

Nc1nc2c(nc(Sc3ccc(Cl)cc3)n2[C@@H]2O[C@@H]3COP(=O)(O)O[C@H]3[C@H]2O)c(=O)[nH]1 [8-ClPhScGMP Na]
L-values (lightness) After application [8]: 45.3

CC(C)(COP(=O)(O)OP(=O)(O)OC[C@H]1O[C@@H](n2cnc3c(N)ncnc32)[C@H](O)[C@@H]1OP(=O)(O)O)[C@@H](O)C(=O)NCCC(=O)NCCS [CoA 3Na, coenzyme A]
increases in the weights of regenerated granulation and the amounts of hydroxyproline (in words) (collagen): particularly excellent effects
safety with respect to skin irritation, etc. ([11]; in vivo): no problem was observed
growth promotion functions for human fibroblasts [4]: particularly excellent effects
increases in the tensile strength of collagen elastin fibril (in words) (collagen elastin fibril): particularly excellent effect

Cc1cc2nc3c(=O)[nH]c(=O)nc-3n(C[C@H](O)[C@H](O)[C@H](O)COP(=O)(O)OP(=O)(O)OC[C@H]3O[C@@H](n4cnc5c(N)ncnc54)[C@H](O)[C@@H]3O)c2cc1C [FAD 2Na, Flavin adenine dinucleotide]
safety with respect to skin irritation, etc. [11, 13]: no problem was observed

NC(=O)c1ccc[n+]([C@@H]2O[C@H](COP(=O)([O-])OP(=O)(O)OC[C@H]3O[C@@H](n4cnc5c(N)ncnc54)[C@H](O)[C@@H]3O)[C@@H](O)[C@H]2O)c1 [NAD Na, β-nicotinamide adenine dinucleotide]
safety with respect to skin irritation, etc. [11, 13]: no problem was observed

NC(=O)c1ccc[n+]([C@@H]2O[C@H](COP(=O)([O-])OP(=O)(O)OC[C@H]3O[C@@H](n4cnc5c(N)ncnc54)[C@H](OP(=O)(O)O)[C@@H]3O)[C@@H](O)[C@H]2O)c1 [NADP Na, β-nicotinamide adenine dinucleotide phosphate]
safety with respect to skin irritation, etc. [11, 13]: no problem was observed

CCCC(=O)Nc1nc2c(ncn2[C@@H]2O[C@@H]3COP(=O)(O)O[C@H]3[C@H]2OC(=O)CCC)c(=O)[nH]1 [N^2,O^2'-DBcGMP Na]
L-values (lightness) After application [8]: 45.5
safety with respect to skin irritation, etc. [11, 13]: problems such as skin irritating property were not found

O=C(O)CCC(=O)Nc1nc2c(ncn2[C@@H]2O[C@@H]3COP(=O)(O)O[C@H]3[C@H]2OC(=O)CCC(=O)O)c(=O)[nH]1 [N^2,O^2'-DScGMP Na]
L-values (lightness) After application [8]: 45.3
effect of preventing the aging of the skin [10]: excellent effects similar to those of Example 7

CCCC(=O)Nc1nc2c(ncn2[C@@H]2O[C@@H]3COP(=O)(O)O[C@H]3[C@H]2O)c(=O)[nH]1 [N^2-MBcGMP Na]
L-values (lightness) After application [8]: 44.6
properties of the creams (lightness of discolored spots) [9]: results similar to those in Example 11
effect of preventing the aging of the skin [10]: excellent effects similar to those of Example 7

O=C(O)CCC(=O)Nc1nc2c(ncn2[C@@H]2O[C@@H]3COP(=O)(O)O[C@H]3[C@H]2O)c(=O)[nH]1 [N^2-MScGMP Na]
L-values (lightness) After application [8]: 44.6

CCCC(=O)OC1C2OP(=O)(O)OCC2OC1n1cnc2c(=O)[nH]c(N)nc21 (stereo not drawn) [O^2'-MBcGMP Na]
L-values (lightness) After application [8]: 43.7
properties of the creams (lightness of discolored spots) [9]: results similar to those in Example 11
effect of preventing the aging of the skin [10]: excellent effects similar to those of Example 7

Nc1nc2c(ncn2[C@@H]2O[C@@H]3COP(=O)(O)O[C@H]3[C@H]2OC(=O)CCC(=O)O)c(=O)[nH]1 [O^2'-MScGMP Na]
L-values (lightness) After application [8]: 43.8

O=C(O)c1cc(C(=O)O)c2c(n1)C(=O)C(=O)c1cc(C(=O)O)[nH]c1-2 [PQQ 2Na, Pyrrolo-quinoline quinone]
safety with respect to skin irritation, etc. ([11]; in vivo): no problem was observed

Nc1nc2c(ncn2[C@@H]2O[C@@H]3COP(=O)(O)O[C@H]3[C@H]2O)c(=O)[nH]1 [cGMP Na, guanosine 3ʹ,5ʹ-cyclic monophosphate]
L-values (lightness) After application [8]: 43.0
safety with respect to skin irritation, etc. [11, 13]: no problem
